Results on 1 compound are retold here after US20220290122A1 (Whitehead Institute for Biomedical Research, priority 2019, published 2022).

In this experiment the test system is MCART1-null Jurkat cells. As to the kind of experiment: Cell proliferation assay with metabolite supplementation (metabolite rescue). The format is cell-based, human. The following applies: RPMI media; 1 mM pyruvate and 100 μg/ml uridine, 1 mM formate or 0.1 mM/16 μM hypoxanthine/thymidine added at the beginning of the culture period; FIG. 5M.

Procedure: Unless otherwise indicated, Jurkat and K562 cells were cultured in RPMI (Life Technologies) supplemented with 10% Inactivated Fetal Calf Serum (IFS, Sigma and Gemini), 2 mM glutamine, and penicillin/streptomycin. HeLa, HEK-293T, and Ben cells were cultured in DMEM (Life Technologies) supplemented with 10% IFS and penicillin/streptomycin. […] To compare proliferation of cells in glucose to proliferation in galactose, RPMI without glucose (Life Technologies) was supplemented with dialyzed IFS and either 10 mM glucose or galactose. All cell lines were maintained at 37° C. and 5% CO2.
10,000 cells per well were seeded into 96-well plates in triplicate. Cell titer glo reagent (Promega) was added to one plate 1 hour after seeding and luminescence was measured, while a second plate was read-out 4 days after seeding. Number of doublings in 4 days was determined by calculating the loge fold-change in signal between day 0 and 4. For cell counting experiments, 100,000 cells/ml were seeded in a 6-well plate in triplicates and counted immediately after seeding and from then on every 24 hours for 5 sequential days.

With `O=CO` [formate], the “rescue of the proliferation defect of MCART1-null cells by addition of metabolites to the media” value is listed as “not rescued”.
